The values that follow come from patent US11013740B2, “Histone deacetylase 6 selective inhibitors for the treatment of cisplatin-induced peripheral neuropathy” (REGENACY PHARMACEUTICALS, LLC, priority 2015, dated 2021).

Data set [1] concerns Cox IV, SDHA and VDAC. The data set is described as follows: Western blot of mitochondrial marker proteins in tibial nerves. Conditions: cisplatin-treated mice, 11 injections of compound. In kind it is in vivo. The method, then: Tibial nerves retrieved from the XF24 assay plate were used for western blot analysis of levels of acetylated α-tubulin and mitochondrial proteins cytochrome c oxidase subunit IV (Cox IV), succinate dehydrogenase complex subunit A (SDHA) and voltage-dependent anion channel (VDAC). Tissues were homogenized in RIPA buffer (50 mM Tris-HCl, pH 7.5, 500 mM NaCl, 2.5 mM MgCl2, 1% NP-40, 10% glycerol) containing proteinase inhibitors by sonication and 10 μg of protein was separated by SDS/PAGE and transferred to PVDF membrane for immunoblot analyses. The membranes were blocked with 5% non-fat dry milk in PBST (phosphate-buffered saline containing 0.1% Tween 20) and probed with primary antibodies recognizing acetylated lysine (Rabbit monoclonal; Abcam, Cambridge, United Kingdom), α-tubulin (Rabbit polyclonal; Cell Signaling Technology, Danvers, Mass.), Cox IV (Mouse monoclonal; Life Technologies, Carlsbad, Calif.), SDHA (Rabbit polyclonal; Cell Signaling Technology, Danvers, Mass.) and VDAC (Rabbit polyclonal; Cell Signaling Technology, Danvers, Mass.) followed by HRP-conjugated anti-mouse, anti-rabbit, or anti-β-actin antibodies (Jackson Laboratory, Bar Harbor, Me.). […] The images were acquired using ImageQuant LAS 4000 (GE Healthcare Life Sciences, Little Chalfont, United Kingdom) and densitometrically analyzed using Image J software.
On the technique in general: Immunoblotting shows a protein as a band on a membrane.

Data set [2] deals with IENF density. The data set is described as follows: Intra-epidermal nerve fiber (IENF) density in hind paw biopsies. The class given is in vivo, mice. From the text: For quantification of IENFs, biopsies from the plantar surface of the hind paws were collected after 3 doses or 11 doses of compound 001 or vehicle and processed as described previously (Qi-Liang Mao-Ying A K, et al. The anti-diabetic drug metformin protects against chemotherapy-induced peripheral neuropathy in a mouse model. Clinical Cancer Research. 2014); Krukowski K, et al. Prevention of chemotherapy-induced peripheral neuropathy by the small-molecule inhibitor pifithrin-mu. Pain. 2015; 156(11):2184-92). In brief, biopsies were fixed in Zamboni's fixative, cryoprotected in 20% sucrose and then frozen in Optimal Cutting Temperature compound (Sakura Finetek USA, Inc., Torrance, Calif.). 25-μm frozen sections were incubated with antibodies against the pan neuronal marker PGP9.5 (Rabbit; AbD Serotec, Oxford, United Kingdom) and Collagen IV (Goat; Southern Biotech, Birmingham, Ala.) followed by Alexa-594 donkey anti-rabbit (Life Technologies, Carlsbad, Calif.) and Alexa-488 donkey anti-goat (Invitrogen, Grand Island, N.Y.). Three randomly chosen sections from each mouse were imaged and quantified under a Leica SPE confocal microscope (Leica Microsystems, Buffalo Grove, Ill.). Nerve fibers that crossed the collagen-stained dermal/epidermal junction into the epidermis were counted and IENF density was determined as the total number of fibers/length of epidermis (IENFs/mm).

In data set [3] the test system is cisplatin-induced numbness. As to the kind of experiment: Adhesive removal test (ART) for numbness. The class given is in vivo, mice. As to conditions: treatment starting after two rounds of cisplatin; tested in week 5. On the procedure: To quantify signs of cisplatin-induced pain, the von Frey test was used (see below) which measures the decrease in threshold to induce a withdrawal response to a mechanical stimulus (hyperalgesia, one of the characteristics of CIPN). To assess cisplatin-induced numbness, the adhesive removal test (ART) was used. The time it took for the mouse to have a behavioral response to the patch (i.e. shaking or attempted removal) was recorded as a measure of sensory deficit or numbness. To determine if behavioral changes were due to altered general activity or motor function, the locomotor activity (LMA) test and the rotarod test was used. For LMA mice were placed in an open-field testing cage and movement was measured for 5 minutes. For the rotarod, mice were trained for two days and then tested on the rotarod (with increasing speeds) for 5 minutes. Time on the rotarod was recorded. […] The time it took for the mouse to display a behavioral response to the patch (i.e. shaking or attempted removal) was recorded. […]

Data set [4] has as its system motor function. The data set is described as follows: Rotarod test. The class given is in vivo, mice. As to conditions: in combination with cisplatin. The method, then: To quantify signs of cisplatin-induced pain, the von Frey test was used (see below) which measures the decrease in threshold to induce a withdrawal response to a mechanical stimulus (hyperalgesia, one of the characteristics of CIPN). To assess cisplatin-induced numbness, the adhesive removal test (ART) was used. The time it took for the mouse to have a behavioral response to the patch (i.e. shaking or attempted removal) was recorded as a measure of sensory deficit or numbness. To determine if behavioral changes were due to altered general activity or motor function, the locomotor activity (LMA) test and the rotarod test was used. For LMA mice were placed in an open-field testing cage and movement was measured for 5 minutes. For the rotarod, mice were trained for two days and then tested on the rotarod (with increasing speeds) for 5 minutes. Time on the rotarod was recorded.
In general terms: The rotarod test checks motor coordination on a turning rod.

As for `O=C(NO)c1cnc(NC2(c3ccccc3)CCC(F)(F)CC2)nc1` [compound 001], in data set [1], the “Cox IV level in tibial nerve” value is “normalized Cox IV levels in the tibial nerve”. In addition, the “IENF density, prolonged regimen” value in data set [2] (2 cycles of cisplatin and 11 doses of compound) is listed as “completely reversed the cisplatin-induced loss of IENFs”. Further, in data set [2] (cisplatin-treated mice, short-term treatment (3 doses)), the “IENF density, short-term treatment” value is given as “did not have any effect on IENF density”. Also, in data set [3], the “time to behavioral response to adhesive patch (numbness)” value is listed as “normalized the response time in this test”. In addition, the “motor function (rotarod)” value in data set [4] was “no effect”.
